The subject of one data set is AGS. Nature of the data set: 72-h MTT cytotoxicity assay, AGS. Particulars: Homo sapiens, 72-h MTT, Table 1, read-out: IC50 Anti-proliferative effect on cell line AGS. The data set is classed as cell-based. As for the experimental part:
(§1) The fluorescence polarisation competitive HDM2 binding assay described in Example 3 was used. Furthermore, the anti-proliferative potency of the compounds against three human tumour cell lines with different genetic make-up was also determined. […] The cell lines used were as follows: AGS, gastric adenocarcinoma, wild-type p53; H1299, large cell lung carcinoma, p53 null, low HDM2; SJSA-1, primitive multipotential bone sarcoma, wild-type p53, overexpressed HDM2.
(§2) Representative bisarylsulfonamide compounds were tested on a panel of transformed and non-transformed human cell lines, using a standard 72-h MTT cytotoxicity assay [Haselsberger K et al, ibid].
For orientation: Formazan colour is commonly taken as a measure of viable cells.

A further data set relates to SJSA-1. Nature of the data set: 72-h MTT cytotoxicity assay, SJSA-1. The data set is classed as cell-based. Particulars: Homo sapiens, SJSA-1; 72-h MTT; Table 1; read-out: IC50 Anti-proliferative effect on cell line SJSA-1. How it is done:
as §1, §2

The subject of another data set is H1299. Description: 72-h MTT cytotoxicity assay, H1299. The data set is classed as cell-based. The settings on record: Homo sapiens, NCI-H1299; 72-h MTT; Table 1; read-out: IC50 Anti-proliferative effect on cell line H 1299. How it is done:
as §1, §2

For data set [1], the system named is E2F transcription factors. Nature of the data set: E2F reporter gene assay (A549-derived luciferase reporter cell line). The data set is classed as cell-based. The settings on record: Homo sapiens. How it is done: A similar system to the p53 reporter assay described above was used, with the exception that it was designed to be responsive to E2F transcription factors rather than p53. An A549-derived cell line stably transfected with an E2F response element and a luciferase reporter gene was created. The genetic expression cassette construct used was from Clontech (Mercury™ Cell Cycle Profiling System). Assays were carried out as described above.
Representative bisarylsulfonamides were tested in the E2F gene reporter assay described in Example 6.
(In general: A reporter such as luciferase makes a cellular process visible.)

In the next data set the target is T1, HDM2 (Homo sapiens, UniProt Q00987).
T1 construct: Recombinant HDM2 (1.5 μg per well) in TBS-BSA buffer
T1 sequence (Q00987 whole entry): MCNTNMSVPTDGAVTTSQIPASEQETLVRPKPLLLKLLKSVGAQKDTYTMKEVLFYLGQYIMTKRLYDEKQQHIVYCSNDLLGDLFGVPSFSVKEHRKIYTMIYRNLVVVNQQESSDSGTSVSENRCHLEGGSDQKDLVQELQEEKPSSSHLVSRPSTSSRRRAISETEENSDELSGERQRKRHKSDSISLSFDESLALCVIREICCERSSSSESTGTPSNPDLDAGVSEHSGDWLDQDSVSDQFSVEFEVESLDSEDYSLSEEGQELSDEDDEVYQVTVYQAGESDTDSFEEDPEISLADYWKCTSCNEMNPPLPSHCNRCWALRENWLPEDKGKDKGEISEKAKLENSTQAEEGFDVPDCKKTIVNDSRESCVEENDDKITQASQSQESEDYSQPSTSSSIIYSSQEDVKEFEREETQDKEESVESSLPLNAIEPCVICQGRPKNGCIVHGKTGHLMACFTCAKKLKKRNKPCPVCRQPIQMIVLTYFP
Nature of the data set: Fluorescence polarisation competitive HDM2 binding assay. In a few lines: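 Recombinant HDM2 (1.5 μg/well) was preincubated 5 min at room temperature with serially diluted compound in 50 mM Tris pH 7.4, 150 mM NaCl, 0.1% BSA, 5% DMSO final. Fluorescein-labelled p53 peptide (0.2 μM) was then added for 45 min. Polarisation was read at 485/520 nm and IC50 derived from dose-response curves.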
On the technique in general: In fluorescence polarisation assays a small probe gives low polarisation when free and higher when bound to something large.

The test system of another data set is p53. Nature of the data set: p53 reporter gene assay (U2OS-derived luciferase reporter cell line). Particulars: for Fold induction of luciferase activity: compared to basal luciferase activity, 16-h time point, at concentration of maximal induction; for Concentration (test compound concentration at which the p53 induction was maximal): p53 reporter, U2OS-derived cell line.

Where [2] appears, read: after 3-h treatment with test compounds, read-out: IC50 E2F reporter, Non-synchronised cells.
Where [3] appears, read: after 3-h treatment, synchronisation with 0.3 mM mimosine for 24 h, followed by wash-out, read-out: IC50 E2F reporter, Synchronised cells.
The mark [4] stands for this setting: fluorescence polarisation format, Table 1, read-out: IC50 In vitro competitive HDM2 binding assay.
Setting [5] is: fluorescence polarisation assay, Table 3, read-out: In vitro competitive HDM2 binding assay IC50.

Results on 13 molecules are retold here after US20050215548A1 (Cyclacel Limited, priority 2002, published 2005).

Like-named read-outs stand apart in the source and are kept apart here.

A word on the IC50: it is the midpoint of a concentration-inhibition curve. Turning to `O=[N+]([O-])c1cc(S(=O)(=O)Nc2ccc(O)cc2)sc1Cl` [Compound 5, 5-Chloro-4-nitrothiophene-2-sulfonic acid (4-hydroxyphenyl)amide], the half-maximal inhibitory concentration (IC50) in the data set on AGS is 2.2 ± 0.6 µM; in the data set on SJSA-1, 24 ± 2.1 µM; in the data set with H1299, 8.7 ± 2.2 µM; in data set [1] (setting [2]) it was 73.3 ± 33.4 µM; in data set [1] (setting [3]), 72 ± 31 µM; at HDM2 (setting [4]), 105 ± 26 µM.

Regarding `O=[N+]([O-])c1cc(S(=O)(=O)Nc2cc(Cl)cc(Cl)c2)sc1Cl` [Compound 39, 5-Chloro-4-nitrothiophene-2-sulfonic acid (3,5-dichlorophenyl)-amide], in the data set with p53, the “Fold induction of luciferase activity” value came to 64 fold. In the data set with p53, the “Concentration (test compound concentration at which the p53 induction was maximal)” value (shortened to “Concentration”) was 15 µM. Besides, the IC50 is 4.9 ± 1.6 µM with AGS; 27.2 ± 0.4 µM with SJSA-1; 12.1 ± 4 µM in the data set on H1299; 90 µM in data set [1] (setting [2]); 46.1 ± 3.4 µM at HDM2 (setting [5]); 46.1 ± 3.4 µM on HDM2 (setting [4]).

In the case of `O=[N+]([O-])c1cc(S(=O)(=O)Nc2cc(F)cc(F)c2)sc1Cl` [Compound 40, 5-Chloro-4-nitrothiophene-2-sulfonic acid (3,5-difluorophenyl)-amide], in the data set on p53, the “Fold induction of luciferase activity” value is 68 fold. Besides, in the data set with p53, the “Concentration” value is 13 µM. For the same molecule, the IC50 in the data set on AGS turned out to be 4 ± 0.3 µM; with SJSA-1, 26.4 ± 0.2 µM; in the data set on H1299, 10.6 ± 0.4 µM; in data set [1] (setting [2]), 99.5 µM; at HDM2 (setting [5]), 59.6 ± 10.9 µM; at HDM2 (setting [4]), 59.6 ± 10.5 µM.

Regarding `O=S(=O)(Nc1ccc(C(F)(F)F)cc1)c1cnc(Cl)c(Br)c1` [Compound 41, 5-Bromo-6-chloropyridine-3-sulfonic acid (4-trifluoromethylphenyl)amide], the concentration for half-maximal inhibition (IC50) in the data set with AGS was found to be 31 ± 2 µM; in the data set with SJSA-1, 53 ± 3 µM; in the data set on H1299, 28 µM; in data set [1] (setting [2]), 76.6 µM; in data set [1] (setting [3]) it was 84 µM; at HDM2 (setting [4]), 258 ± 12 µM.

As to `O=[N+]([O-])c1cc(S(=O)(=O)NCc2ccc(C(F)(F)F)cc2)sc1Cl` [Compound 46, 5-Chloro-4-nitrothiophene-2-sulfonic acid 4-trifluoromethylbenzylamide], in the data set with p53, the “Fold induction of luciferase activity” value was 55 fold. Moreover, the “Concentration” value in the data set on p53 is 6 µM. The IC50 in the data set on AGS is 1.3 ± 0.5 µM; in the data set on SJSA-1, 4.4 ± 1.1 µM; with H1299, 3.4 ± 0.5 µM; in data set [1] (setting [2]), 25.5 ± 3.1 µM; on HDM2 (setting [5]), 11.1 ± 1.7 µM; on HDM2 (setting [4]), 11.1 ± 1.7 µM.

For `O=[N+]([O-])c1cc(S(=O)(=O)NCCc2c[nH]c3ccccc23)sc1Cl` [Compound 48, 5-Chloro-4-nitrothiophene-2-sulfonic acid [2-(1H-indol-3-yl)-ethyl]amide], the “Fold induction of luciferase activity” value with p53 stood at 43.5 fold. Further, the “Concentration” value in the data set with p53 is 5.5 µM. The 50% inhibitory concentration (IC50) with AGS stood at 2.6 ± 1.4 µM; with SJSA-1, 3.1 ± 1 µM; with H1299 it was 3.6 ± 0.9 µM; in data set [1] (setting [2]), 31.3 ± 2.6 µM; on HDM2 (setting [5]) it was 25.3 ± 4.6 µM; on HDM2 (setting [4]), 25.3 ± 4.6 µM.

Take `O=[N+]([O-])c1cc(S(=O)(=O)NCCc2c[nH]c3cc(Cl)ccc23)sc1Cl` [Compound 60, 5-Chloro-4-nitro-thiophene-2-sulfonic acid [2-(6-chloro-1H-indol-3-yl)-ethyl]-amide]: the “Fold induction of luciferase activity” value in the data set on p53 worked out at 48 fold. Moreover, the “Concentration” value in the data set on p53 was found to be 7.5 µM. Further, the IC50 stood at 29.2 ± 6.8 µM in data set [1] (setting [2]), 29 ± 6 µM at HDM2 (setting [5]) and 29 ± 6 µM on HDM2 (setting [4]).

On to `COc1ccc(NS(=O)(=O)c2cc([N+](=O)[O-])c(Cl)s2)cc1` [Compound 61, 5-Chloro-4-nitro-thiophene-2-sulfonic acid (4-methoxy-phenyl)-amide], for which the “Fold induction of luciferase activity” value in the data set on p53 is given as 34 fold. In addition, the “Concentration” value in the data set on p53 turned out to be 4.8 µM. The 50% inhibitory concentration (IC50) in the data set with AGS was 1.8 ± 0.4 µM; in the data set with SJSA-1 it was 2.8 ± 0.2 µM; in the data set on H1299, 2.7 ± 0.4 µM; in data set [1] (setting [2]) it was 34.6 ± 22.9 µM; on HDM2 (setting [5]) it was 45 ± 14 µM; on HDM2 (setting [4]) it was 45 ± 14 µM.

Turning to `Cc1ccc(NS(=O)(=O)c2cc([N+](=O)[O-])c(Cl)s2)cc1` [Compound 63, 5-Chloro-4-nitro-thiophene-2-sulfonic acid p-tolylamide], the “Fold induction of luciferase activity” value in the data set with p53 turned out to be 95 fold. In addition, in the data set on p53, the “Concentration” value turned out to be 6.4 µM. Moreover, the IC50 was determined as 1.7 ± 0.6 µM with AGS; 5.7 ± 1.6 µM in the data set on SJSA-1; 3.9 ± 0.9 µM in the data set on H1299; 35 ± 8 µM on HDM2 (setting [5]); 35 ± 8 µM on HDM2 (setting [4]).

In the case of `O=[N+]([O-])c1cc(S(=O)(=O)NCc2ccccc2)sc1Cl` [Compound 64, 5-Chloro-4-nitro-thiophene-2-sulfonic acid benzylamide], the IC50 was found to be 3.6 ± 0.2 µM with AGS; 7.3 ± 1.7 µM in the data set with SJSA-1; 6.3 ± 2.1 µM in the data set on H1299; 44.6 ± 2.3 µM in data set [1] (setting [2]); 18 µM on HDM2 (setting [4]).

On to `O=[N+]([O-])c1cc(S(=O)(=O)N(Cc2ccccc2)c2ccc(Cl)cc2)sc1Cl` [Compound 65, 5-Chloro-4-nitro-thiophene-2-sulfonic acid benzyl-(4-chloro-phenyl)-amide], for which the “Fold induction of luciferase activity” value in the data set with p53 is 74 fold. The “Concentration” value in the data set on p53 was 10 µM. For the same molecule, the IC50 worked out at 5.2 ± 2.2 µM with AGS; 11.1 ± 6.7 µM in the data set on SJSA-1; 10.8 ± 4.3 µM in the data set with H1299; 7.4 ± 1 µM on HDM2 (setting [5]); 7.4 ± 1 µM at HDM2 (setting [4]).

Consider `COc1ccc(N(Cc2ccccc2)S(=O)(=O)c2cc([N+](=O)[O-])c(Cl)s2)cc1` [Compound 66, 5-Chloro-4-nitro-thiophene-2-sulfonic acid benzyl-(4-methoxy-phenyl)-amide], for which the “Fold induction of luciferase activity” value in the data set with p53 is recorded as 65 fold. Further, the “Concentration” value with p53 was 4.2 µM. Besides, the IC50 was 2.4 ± 0.2 µM in the data set on AGS; 3.9 ± 1.3 µM in the data set on SJSA-1; 3.9 ± 0.5 µM in the data set on H1299; 14.7 ± 0.9 µM on HDM2 (setting [5]); 14.7 ± 0.9 µM on HDM2 (setting [4]).

Turning to `O=[N+]([O-])c1cc(S(=O)(=O)Nc2nc3ccccc3[nH]2)ccc1Cl` [Compound 83, N-(1H-Benzoimidazol-2-yl)-4-chloro-3-nitro-benzenesulfonamide], the “Fold induction of luciferase activity” value with p53 is given as 10 fold. Also, the “Concentration” value in the data set with p53 came to 5 µM. In addition, the 50% inhibitory concentration (IC50) in the data set with AGS was 0.9 ± 0.1 µM; in the data set with SJSA-1 it was 2.3 ± 0.9 µM; in the data set on H1299, 1.4 ± 0.2 µM; in data set [1] (setting [2]), 29.4 ± 6 µM; on HDM2 (setting [5]), 119 ± 42.5 µM; on HDM2 (setting [4]) it was 119 ± 43 µM.
